Data as given in US7939548B2, “Certain chemical entities, compositions, and methods” (Cytokinetics, Inc., priority 2006, dated 2011).
pIC50: −log10 of the molar value.

Target: T1, chicken gizzard smooth muscle myosin subfragment-1 chemically crosslinked to either cardiac or skeletal actin (Gallus gallus, UniProt P10587)
T1 construct: chicken gizzard smooth muscle myosin subfragment-1
Assay: Smooth muscle myosin ATPase dose response assay (pyruvate kinase/horseradish peroxidase/pyruvate oxidase-coupled)
Type: biochemical
Details: ATPase activity of crosslinked smooth muscle actomyosin (subfragment-1); amplex red fluorescence; 4 parameter fit; read-out: IC50 Arithmetic Mean
Description: Screening assays were performed using a pyruvate kinase and lactate dehydrogenase-coupled ATPase assay containing the following reagents: Potassium PIPES (50 mM), MgCl2 (3 mM), KCl (100 mM), ATP (0.15 mM), DTT (1 mM), BSA (0.1 mg/ml), NADH (0.5 mM), PEP (1.5 mM), pyruvate kinase (4 U/ml), lactate dehydrogenase (8 U/ml), and antifoam (50 ppm) (concentrations expressed are final assay concentrations). The pH was adjusted to 6.80 at 22 °C by addition of potassium hydroxide. Lead optimization assays were performed with a more sensitive pyruvate kinase/horseradish peroxidase/pyruvate oxidase-coupled ATPase assay containing the following reagents: Potassium PIPES (12 mM), MgCl2 (2 mM), KCl (100 mM), ATP (0.15 mM), BSA (0.05 mg/ml), potassium phosphate (2 mM), amplex red (0.1 mM), PEP (0.1 mM), pyruvate kinase (4 U/ml), horseradish peroxidase (0.5 U/ml), pyruvate oxidase (0.5 U/ml), and antifoam (50 ppm) (concentrations expressed are final assay concentrations). The pH was adjusted to 7.00 at 22 °C by addition of potassium hydroxide.
The protein components specific to this assay are chicken gizzard smooth muscle myosin subfragment-1 that has been chemically crosslinked to either cardiac or skeletal actin using an excess of 1-Ethyl-3-[3-dimethylaminopropyl]carbodiimide hydrochloride and N-hydroxysuccinimide. The exact concentration of the crosslinked smooth muscle myosin in the assay is determined empirically, by titration to achieve a desired rate of ATP hydrolysis. The concentration varies between protein preparations due to variations in the fraction of active molecules in each preparation.
Compound dose response assays are performed by first preparing a dilution series of test compound, each with an assay mixture containing potassium PIPES, MgCl2, KCl, ATP, BSA, potassium phosphate, amplex red, PEP, crosslinked smooth muscle actomyosin (subfragment-1), antifoam, and water. The assay is started by adding an equal volume of solution containing potassium Pipes, MgCl2, KCl, BSA, potassium phosphate, pyruvate kinase, horseradish peroxidase, pyruvate oxidase, antifoam, and water. ATP hydrolysis is monitored by measuring the fluorescence of amplex red (excitation at 480 nm, emission at 615 nm). The resulting dose response curve is fit by the 4 parameter equation y=Bottom+((Top-Bottom)/(1+((IC50/X)^Hill))). The IC50 is defined as the concentration at which ATPase activity is midway between the top and bottom of the dose response curve.

| Compound | pIC50 |
| --- | --- |
| N=C(N)c1ccc(C(=O)NCc2cccnc2)c(NCCc2cccc(F)c2)n1 [6-{[2-(3-fluorophenyl)ethyl]amino}-5-[N-(3-pyridylmethyl)carbamoyl]pyridine-2-carboxamidine] | 5.18 |
| CN(C)C(=O)CCCCNc1ccc(C(=O)NCc2cccnc2)c(NCCc2cccc(F)c2)n1 [5-[(6-{[2-(3-fluorophenyl)ethyl]amino}-5-[N-(3-pyridylmethyl)carbamoyl](2-pyridyl))amino]-N,N-dimethylpentanamide] | 4.26 |
| O=C(NCc1ccccn1)c1cc(Br)cnc1NCCc1cccc(F)c1 [(5-bromo-2-{[2-(3-fluorophenyl)ethyl]amino}(3-pyridyl))-N-(2-pyridylmethyl)carboxamide] | 4.93 |
| O=C(NCc1cccnc1)c1ccc(NCCO)nc1NCCc1cccc(F)c1 [(2-{[2-(3-fluorophenyl)ethyl]amino}-6-[(2-hydroxyethyl)amino](3-pyridyl))-N-(3-pyridylmethyl)carboxamide] | 4.88 |
| O=C(NCc1cccnc1)c1ccc(NCc2ccncc2)nc1NCCc1cccc(F)c1 [(2-{[2-(3-fluorophenyl)ethyl]amino}-6-[(4-pyridylmethyl)amino](3-pyridyl))-N-(3-pyridylmethyl)carboxamide] | 4.47 |
| CNC(=O)CNC(=O)c1cc(-c2ccccc2C#N)cnc1NCCc1cccc(F)c1 [2-[(5-(2-cyanophenyl)-2-{[2-(3-fluorophenyl)ethyl]amino}(3-pyridyl))carbonylamino]-N-methylacetamide] | 4.75 |
| NC(=O)c1ccc(C(=O)NCc2cccnc2)c(NCCc2cccc(F)c2)n1 [6-{[2-(3-fluorophenyl)ethyl]amino}-5-[N-(3-pyridylmethyl)carbamoyl]pyridine-2-carboxamide] | 4.85 |
| CC(O)CN(C)c1ccc(C(=O)NCc2cccnc2)c(NCCc2cccc(F)c2)n1 (stereo not shown) [(2-{[2-(3-fluorophenyl)ethyl]amino}-6-[(2-hydroxypropyl)methylamino](3-pyridyl))-N-(3-pyridylmethyl)carboxamide] | 4.98 |
| O=C(NCc1ccccn1)c1cc(Br)c(Cl)nc1NCCc1cccc(F)c1 [(5-bromo-6-chloro-2-{[2-(3-fluorophenyl)ethyl]amino}(3-pyridyl))-N-(2-pyridylmethyl)carboxamide] | 4.76 |
| COCCCNc1ccc(C(=O)NCc2cccnc2)c(NCCc2cccc(F)c2)n1 [(2-{[2-(3-fluorophenyl)ethyl]amino}-6-[(3-methoxypropyl)amino](3-pyridyl))-N-(3-pyridylmethyl)carboxamide] | 4.96 |
| CN(CCO)c1ccc(C(=O)NCc2cccnc2)c(NCCc2cccc(F)c2)n1 [(2-{[2-(3-fluorophenyl)ethyl]amino}-6-[(2-hydroxyethyl)methylamino](3-pyridyl))-N-(3-pyridylmethyl)carboxamide] | 4.34 |
| Cc1cccc(CNC(=O)c2cc(Br)cnc2NCCc2cccc(F)c2)n1 [(5-bromo-2-{[2-(3-fluorophenyl)ethyl]amino}(3-pyridyl))-N-[(6-methyl(2-pyridyl))methyl]carboxamide] | 4.75 |
| CN(C)C(=O)CCCNc1ccc(C(=O)NCc2cccnc2)c(NCCc2cccc(F)c2)n1 [4-[(6-{[2-(3-fluorophenyl)ethyl]amino}-5-[N-(3-pyridylmethyl)carbamoyl](2-pyridyl))amino]-N,N-dimethylbutanamide] | 4.15 |

Other lines, results leading:

| pIC50 | Compound |
| --- | --- |
| 4.18 | N#Cc1ccc(C(=O)NCc2cccnc2)c(NCCc2cccc(F)c2)n1 [(6-cyano-2-{[2-(3-fluorophenyl)ethyl]amino}(3-pyridyl))-N-(3-pyridylmethyl)carboxamide] |
| 4.76 | CN(C)C(=N)c1ccc(C(=O)NCc2cccnc2)c(NCCc2cccc(F)c2)n1 [(6-[(dimethylamino)iminomethyl]-2-{[2-(3-fluorophenyl)ethyl]amino}(3-pyridyl))-N-(3-pyridylmethyl)carboxamide] |
| 4.75 | Cn1cc(-c2cnc(NCCc3cccc(F)c3)c(C(=O)NCc3cccc(CN)n3)c2)cn1 [N-{[6-(aminomethyl)(2-pyridyl)]methyl}(2-{[2-(3-fluorophenyl)ethyl]amino}-5-(1-methylpyrazol-4-yl)(3-pyridyl))carboxamide] |
| 6.52 | C/C=C/c1ccc(C(=O)NCc2cccnc2)c(NCCc2cccc(F)c2)n1 [(6-((1E)prop-1-enyl)-2-{[2-(3-fluorophenyl)ethyl]amino}(3-pyridyl))-N-(3-pyridylmethyl)carboxamide] |
| 6.44 | C/C=C/c1nc(NCCc2cccc(F)c2)c(C(=O)NCc2cccnc2)cc1C#N [(6-((1E)prop-1-enyl)-5-cyano-2-{[2-(3-fluorophenyl)ethyl]amino}(3-pyridyl))-N-(3-pyridylmethyl)carboxamide] |
| 7.42 | C/C=C/c1ccc(C(=O)NCc2cccnc2CN)c(NCCc2cccc(F)c2)n1 [(6-((1E)prop-1-enyl)-2-{[2-(3-fluorophenyl)ethyl]amino}(3-pyridyl))-N-{[2-(aminomethyl)(3-pyridyl)]methyl}carboxamide] |
| 6.03 | COC/C=C/c1ccc(C(=O)NCc2cccnc2)c(NCCc2cccc(F)c2)n1 [(6-((1E)-3-methoxyprop-1-enyl)-2-{[2-(3-fluorophenyl)ethyl]amino}(3-pyridyl))-N-(3-pyridylmethyl)carboxamide] |
| 5.01 | O=C(NCc1cccc(CN2C(=O)c3ccccc3C2=O)n1)c1cc(Br)cnc1NCCc1cccc(F)c1 [N-({6-[(1,3-dioxobenzo[c]azolin-2-yl)methyl](2-pyridyl)}methyl)(5-bromo-2-{[2-(3-fluorophenyl)ethyl]amino}(3-pyridyl))carboxamide] |
| 5.13 | NCc1cccc(CNC(=O)c2cc(-c3cccnc3)cnc2NCCc2cccc(F)c2)n1 [N-{[6-(aminomethyl)(2-pyridyl)]methyl}(2-{[2-(3-fluorophenyl)ethyl]amino}-5-(3-pyridyl)(3-pyridyl))carboxamide] |
| 5.58 | CCOC(=O)c1ccc(C(=O)NCc2cccnc2)c(NCCc2cccc(F)c2)n1 [ethyl 6-{[2-(3-fluorophenyl)ethyl]amino}-5-[N-(3-pyridylmethyl)carbamoyl]pyridine-2-carboxylate] |
| 4.14 | CCOC(C)c1ccc(C(=O)NCc2cccnc2)c(NCCc2cccc(F)c2)n1 (stereo not shown) [(6-(ethoxyethyl)-2-{[2-(3-fluorophenyl)ethyl]amino}(3-pyridyl))-N-(3-pyridylmethyl)carboxamide] |
| 4.61 | CC(=O)c1ccc(C(=O)NCc2cccnc2)c(NCCc2cccc(F)c2)n1 [(6-acetyl-2-{[2-(3-fluorophenyl)ethyl]amino}(3-pyridyl))-N-(3-pyridylmethyl)carboxamide] |
| 6.64 | N#CNC(=N)c1ccc(C(=O)NCc2cccnc2)c(NCCc2cccc(F)c2)n1 [(6-[(cyanoamino)iminomethyl]-2-{[2-(3-fluorophenyl)ethyl]amino}(3-pyridyl))-N-(3-pyridylmethyl)carboxamide] |
| 4.27 | CC(=O)N(CCO)c1ccc(C(=O)NCc2cccnc2)c(NCCc2cccc(F)c2)n1 [N-(6-{[2-(3-fluorophenyl)ethyl]amino}-5-[N-(3-pyridylmethyl)carbamoyl](2-pyridyl))-N-(2-hydroxyethyl)acetamide] |
| 5.29 | CN(C)/C(=N/C#N)c1ccc(C(=O)NCc2cccnc2)c(NCCc2cccc(F)c2)n1 [(6-[(1E)-1-(dimethylamino)-2-cyano-2-azavinyl]-2-{[2-(3-fluorophenyl)ethyl]amino}(3-pyridyl))-N-(3-pyridylmethyl)carboxamide] |
